Here are results for 1 compound from patent US20220304945A1, “METHODS OF TREATING METABOLIC SYNDROME RELATED CONDITIONS USING RETINOIC ACID RECEPTOR AGONISTS” (Cornell University, priority 2014, published 2022).

Entries after “also recorded” stand apart in the source; their conditions may differ.

Common to all, as to format: in vivo, mouse
Data set [1] concerns SREBP1, FASN, PPAR-α, CPT1-α, MCP-1, TNF-α, α-SMA mRNA. Kind of data set: PCR of kidney genes of lipid metabolism, inflammation and fibrosis in HFD, Ob/Ob and Db/Db mice (Example 23). As for the experimental part: Quantitative RT-PCR (Q-PCR)-Q-PCR was performed using SYBR Green PCR master mix on a Bio-Rad MyiQ2 Real Time PCR iCycler (Bio-Rad, Inc. Hercules, Calif.). Gene specific primers (Table 5) were used to amplify mRNA target genes, which were normalized to Hprt internal control genes. cDNA from 3-5 mice per experimental group was analyzed for relative mRNA fold changes, calculated using the Pfaffl method (Pfaffl M W, A new mathematical model for relative quantification in real-time RT-PCR, Nucleic Acids Res. 2001 May 1; 29(9):e45). Relative gene expression values are reported as mean±standard error of the mean (S.E.M) and P-values calculated using one-way analysis of variance followed by Bonferroni multiple comparison test post-hoc analysis.
Diabetic kidney disease (aka diabetic nephropathy (DN)) frequently occurs in individuals with type 2 diabetes. The causes of DN are unclear but insulin resistance, hyperlipidemia and obesity are implicated because these states can impair renal lipid metabolism leading to the accumulation of free fatty acids (FFA), which can promote renal inflammation, fibrosis and impaired kidney function. There is evidence that transcriptions factors involved in de novo lipid synthesis such as srebpl contribute to the pathogenesis of DN. […] HF-fed mice treated with AC261066 had no increase in mRNA transcripts of SREBP1 and FASN (FIG. 33A).
We also measured kidney mRNA levels of pro-inflammatory and fibrogenic mediators MCP-1 (aka CCL2), TNF-α, and α-SMA in HFD-fed mice and two genetic mouse models of obesity and diabetes, Ob/Ob and Db/Db mice. MCP-1, TNF-α, and α-SMA are implicated in inflammation and fibrosis in DN and expression of these genes are frequently elevated in models of DN. […] Kidney mRNA transcripts of α-SMA, which contributes to DN fibrosis, was increased 5-6 fold in HFD Ob/Ob and Db/Db mice compared to wt con (FIG. 33D). HFD Ob/Ob and Db/Db mice treated AC261066 had 40-50% reductions in a-SMA transcripts compared to their respective HFD and genetic controls (FIG. 33D).

The next data set concerns RARβ2 mRNA. Kind of data set: Semi-quantitative PCR of pancreas, HF-fed mice. The following applies: HF diet mice; vs HF-vehicle. The text has this:
(§1) Mice, diet, and drug treatment. WT male C57/BL6 male mice were maintained on either a standard laboratory chow-fed diet (CFD) with 13% kcal fat, (diet #5053, Lab Diet, Inc, St. Louis, Mo.) or a high fat, western style diet (HFD) with 60% kcals from fat, (diet #58126, Lab Diet, Inc., St. Louis, Mo.) for 4 months. One month after the start of the high fat diet treatment, the high fat diet group was further split into 2 groups for 3 months: i) high fat diet and the drinking water containing 1% DMSO; ii) high fat diet and the drinking water containing 1.5 mg/100 ml AC261066, a specific RARβ agonist. Then mice were sacrificed by cervical dislocation. Blood and various tissue samples were harvested.
Semi-Quantitate PCR. Total RNA was extracted from mouse tissues using TRIzol reagent (Life technologies) and (1 μg) was used to synthesize cDNA. cDNA synthesis was performed at 42° C. for 1 h in a final volume of 20 μl using qScript (Quanta, MD). Semi-quantitative PCR were performed Taq DNA polymerase (Invitrogen, CA). Three step PCR was run as follows: 94° C. for 30 s, 58-64° C. for 45 s for primer annealing and 72° C. for 1 min for primer extension. The number of cycles for each primer pair for amplification in the linear range was determined experimentally. PCR products were resolved on 2% agarose gels and visualized by staining with ehtidium bromide. […]

Data set [2] deals with pancreatic islets (β-cells). Kind of data set: Pancreatic islet size (insulin immunofluorescence) and pancreatic insulin content (ELISA). Conditions: Ob/Ob and Db/Db models. As for the experimental part:
Immunofluorescence and Immunostaining Microscopy-Paraffin embedded pancreatic tissue sections were incubated with antibodies against: insulin (mouse monoclonal 1:300, #1061, Beta Cell Biology Consortium). We utilized Alexa-fluor 488 conjugated anti-mouse secondary antibody (1:500) (Invitrogen, Carlsbad, Calif.) for immunofluorescence labeling of insulin followed by visualization using a Nikon TE2000 inverted fluorescence microscope (Nikon, Inc).
Pancreatic Insulin Measurements-Pancreatic insulin levels were measured in lysates from pancreatic tissues using an ultrasensitive Insulin ELISA Kit (Alpco, Inc. Salem, N.H.) as per the manufacturers' instructions. Insulin concentrations were normalized to pancreatic protein concentrations determined using the DC protein assay (Bio-Rad, Inc. Hercules, Calif.) according to the manufacturers' protocol. Endocrine hormones levels are reported as mean±standard error of the mean (S.E.M) and P-values calculated using one-way analysis of variance followed by Bonferroni multiple comparison test post-hoc analysis.
Measurement of Pancreatic Endocrine Cell Mass.—Pancreatic endocrine cell mass was determined using a direct point counting method as previously described. […]

Data set [3] is described as follows: Serum triglyceride level measurement (bichromatic assay), Example 8. The following applies: HF diet mice (Example 8); vs control diet.
From the text: as §1
Serum triglyceride level measurement. The analysis of serum triglyceride levels was carried out using a bichromatic assay at the Laboratory of Comparative Pathology of the Memorial Sloan-Kettering Cancer Center. Chow-fed diet (CFD) n=2; high fat diet (HFD) n=3; high fat diet+AC261066 (HFDAC) n=5.

The test system of data set [4] is 4-HNE, oxidative stress in pancreatic islets. Kind of data set: 4-hydroxynonenal (4-HNE) staining of pancreas, HF-fed mice. The following applies: HF diet mice, AC261066 in drinking water; vs HF-vehicle.
From the text: as §1
(§2) 4-hydroxynonenal (4-HNE) staining. Paraffin-embedded sections (from two to four mice per group) were deparaffinized and rehydrated, and antigen retrieval was performed using an antigen unmasking solution (Vector Laboratories, H-3300). After quenching endogenous peroxidase with 3% H2O2, the tissue sections were blocked with the blocking reagent (from the M.O.M. kit from Vector Laboratories). Then, tissue sections were incubated with a 4-HNE antibody (1:400; mouse monoclonal antibody; Abcam, ab48506) overnight at 4° C. The sections were then incubated with secondary antibodies (1:200, anti-mouse IgG from the M.O.M kit). […]

In data set [5] the test system is 4-HNE, oxidative stress in the liver. The data set can be described thus: 4-HNE staining of liver, HF-fed mice. Conditions: HF diet mice; vs high fat diet group.
From the text: as §1, §2

The mark [6] stands for this setting: HFD, Ob/Ob and Db/Db mice vs respective untreated.

Regarding `CCCCOCCOc1nc(-c2ccc(C(=O)O)c(F)c2)sc1C` [AC261066], in data set [1] (HF-fed mice), the “kidney mRNA transcripts of PPAR-α and CPT1-α, increase vs HFD-fed mice” value is listed as “approximately 2 fold”; the “kidney mRNA transcripts of SREBP1 and FASN” value was “no increase”. The “reduction in kidney α-SMA transcripts” value in data set [1] (HFD, Ob/Ob and Db/Db mice vs respective controls) was 40-50%. Also, in data set [1] (setting [6]), the “reduction in kidney mRNA transcripts of MCP-1” value was 40-50% and the “reduction in kidney mRNA transcripts of TNF-α” value is listed as 40-50%. In addition, the “pancreatic RARβ2 mRNA level” value with RARβ2 mRNA is listed as “increased”. In addition, the pancreatic insulin content result in data set [2] is “diminishes”. In data set [2] (HF-fed mice), the “number of large pancreatic islets (enlarged β-cells)” value is given as “diminishes”. Moreover, the serum triglyceride levels result in data set [3] is on record as “does not increase; also recorded: does not affect”. Further, the “4-HNE level (oxidative stress) in pancreatic islets” value in data set [4] is given as “reduces oxidative stress; also recorded: markedly lower”. In addition, the “4-HNE level (oxidative stress, ROS) in liver” value in data set [5] is given as “reduces oxidative stress; also recorded: lower”.
